Data on six compounds can be found in the NIST ThermoML archive (doi:10.1016/j.tca.2007.07.008).

Molecules are shown by their SMILES. ± gives the expanded uncertainty stated by the source.

For series [1] the following is noted: for mass density: 298.15 K, 101.33 kPa, Liquid, Vibrating tube method.
Series [2] can be described thus: refractive index (Na D-line) (dimensionless). As to conditions: 298.15 K; 101.33 kPa; Liquid; Standard Abbe refractometry.

For orientation: mass density means the mass of a sample divided by its volume. One may read the refractive index as the speed of light in vacuum divided by its phase velocity in the sample. `CN(C)C=O` [dimethylformamide]: the mass density in series [1] is 943.93 ± 0.13 kg/m3. For the same compound, the refractive index in series [2] is given as 1.4276 ± 0.0007. Taken in the same sequence, the figures for `NC=O` [formamide] were 1129.15 ± 0.2 kg/m3 and 1.4465 ± 0.0007. With `CC(C)=O` [acetone], in series [1], the mass density was found to be 784.65 ± 0.16 kg/m3. Further, the refractive index in series [2] was determined as 1.3563 ± 0.0007. The matching figures for `CC(=O)N(C)C` [N,N-dimethylethanamide]: 936.5 ± 0.1 kg/m3 and 1.436 ± 0.0007. The matching figures for `CNC=O` [N-methylformamide]: 998.92 ± 0.3 kg/m3 and 1.4308 ± 0.0008.

Take `CN1C(=O)N(C)C2C1N(C)C(=O)N2C` (stereo unspecified) [1,3,4,6-tetramethylglycoluril]: the Normal melting temperature in series [1] (Crystal) was 228 ± 4 °C.
